Data reported in PubChem BioAssay (NCI).
Values joined by “and” are separate entries in the source; they are usually repeats but may differ in a detail not shown here. Identical values can stand only once.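 Interpolation was linear, between the two tested concentrations surrounding the appropriate level; five concentrations were tested over 48 hours in 96-well plates. GI50: concentration for 50% inhibition of growth. Definition used: TGI = concentration required for complete inhibition of growth.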

Columns and labels:
Test in all cases: DTP human tumour cell line panel, 48 h
[1] = tested on: KM12 colon
[2] = tested on: OVCAR-3 ovarian
[3] = tested on: LOX IMVI melanoma
[4] = tested on: UO-31 renal
[5] = tested on: U251 CNS
[6] = tested on: 786-0 renal
[7] = tested on: HCT-15 colon
[8] = tested on: MOLT-4 leukemia
[9] = tested on: COLO 205 colon
[10] = tested on: SN12C renal

## COC(=O)c1cccc(NC(=O)c2ccc(NC3=C(Cl)C(=O)N(Cc4ccccc4)C3=O)cc2)c1
[1]
  GI50: 19.7 µM
  TGI: 41.7 µM
[2]
  GI50: 6.45 µM
  TGI: 25.9 µM
[3]
  GI50: 1.76 µM
  TGI: 16.2 µM
[4]
  GI50: 1.7 µM
  TGI: 3.31 µM
[5]
  GI50: 12.7 µM
  TGI: 28.3 µM
[6]
  GI50: 10.5 µM
  TGI: 25.2 µM
[7]
  GI50: 2.29 µM
  TGI: 17.5 µM
[8]
  GI50: 12.5 µM
  TGI: 56.5 µM
[9]
  GI50: 21.4 µM
  TGI: > 100 µM
[10]
  GI50: 4.69 µM
  TGI: 23.6 µM

## C=CC(=O)N1CCC[C@@H](n2nc(-c3ccc(Oc4ccccc4)cc3)c3c(N)ncnc32)C1
[1]
  GI50: > 8.92 µM
  TGI: > 10 µM
[2]
  GI50: > 6.8 µM
  TGI: > 10 µM
[3]
  GI50: > 5.39 µM
  TGI: > 10 µM
[4]
  GI50: 1.1 µM
  TGI: > 10 µM
[5]
  GI50: 9.81 µM
  TGI: > 10 µM
[6]
  GI50: > 4.5 µM
  TGI: > 10 µM
[7]
  GI50: > 10 µM
  TGI: > 10 µM
[8]
  GI50: > 5.29 µM
  TGI: > 10 µM
[9]
  GI50: > 10 µM
  TGI: > 10 µM
[10]
  GI50: > 4.69 µM
  TGI: > 10 µM

## Fc1ccc(Nc2nc3nonc3nc2Nc2ccc(I)cc2)cc1
[1]
  GI50: 0.332 µM
  TGI: 11.4 µM
[2]
  GI50: 0.319 µM
  TGI: 14.1 µM
[3]
  GI50: 0.349 µM
  TGI: 1.44 µM
[4]
  GI50: 0.156 µM
  TGI: 0.858 µM
[5]
  GI50: 0.293 µM
  TGI: 10.8 µM
[6]
  GI50: 0.298 µM
  TGI: 2.59 µM
[7]
  GI50: 0.302 µM
  TGI: 10.5 µM
[8]
  GI50: 0.219 µM
  TGI: 0.75 µM
[9]
  GI50: 0.208 µM
  TGI: 0.55 µM
[10]
  GI50: 0.26 µM
  TGI: 11.2 µM

## CC1(C)C(CC(=O)O)CCCC1CC(=O)O (centres undefined)
[1]
  TGI: > 100 µM
[2]
  TGI: > 100 µM
[3]
  TGI: > 100 µM
[4]
  TGI: > 100 µM
[5]
  TGI: > 100 µM
[6]
  TGI: > 100 µM
[7]
  TGI: > 100 µM
[8]
  TGI: > 100 µM
[9]
  TGI: > 100 µM
[10]
  TGI: > 100 µM

## COc1cc2c(cc1[N+](=O)[O-])C(=O)C(Br)(Br)CCC2
[1]
  TGI: 15.2 µM
[2]
  TGI: 10.5 µM
[3]
  TGI: 1.97 µM
[4]
  TGI: 3.23 µM
[5]
  TGI: 9.04 µM
[6]
  TGI: 2.73 µM
[7]
  TGI: 3.67 µM
[8]
  TGI: 5.95 µM
[9]
  TGI: 3.57 µM
[10]
  TGI: 5.16 µM

## O=C(O)c1ccc(/C=N/N=C2c3ccccc3-c3ccccc32)cc1
[1]
  TGI: > 100 µM
[2]
  TGI: 67.4 µM
[3]
  TGI: > 100 µM
[4]
  TGI: > 100 µM
[5]
  TGI: > 100 µM
[6]
  TGI: > 100 µM
[7]
  TGI: > 100 µM
[8]
  TGI: > 100 µM
[9]
  TGI: > 100 µM
[10]
  TGI: > 100 µM

## O=C(O)CCC1c2[nH]c3ccccc3c2CCN1Cc1ccccc1 (centres undefined)
[1]
  TGI: > 100 µM
[2]
  TGI: > 100 µM
[3]
  TGI: > 100 µM
[4]
  TGI: > 100 µM
[5]
  TGI: > 100 µM
[6]
  TGI: > 100 µM
[7]
  TGI: > 100 µM
[8]
  TGI: > 100 µM
[9]
  TGI: > 100 µM
[10]
  TGI: > 100 µM

## C[C@]12CC[C@@H]3c4ccc(OC(=O)N(CCCl)CCCl)cc4CC[C@H]3[C@@H]1CC[C@@H]2OP(=O)(O)O
[1]
  GI50: 40.3 µM
  TGI: > 100 µM
[2]
  GI50: 46.7 µM
  TGI: > 95.2 µM
[3]
  GI50: 46.2 µM
  TGI: > 100 µM
[4]
  GI50: 79.9 µM
  TGI: > 100 µM
[5]
  GI50: 33.9 µM
  TGI: > 100 µM
[6]
  GI50: 43.9 µM
  TGI: > 100 µM
[7]
  GI50: 43.5 µM
  TGI: > 100 µM
[8]
  GI50: > 59.3 µM
  TGI: > 100 µM
[9]
  GI50: 57.8 µM
  TGI: > 100 µM
[10]
  GI50: 17.2 µM
  TGI: 40.1 µM

## CC(=O)N[C@@H](Cc1ccc(OP(=O)(O)O)cc1)C(=O)N[C@H]1CCC(=O)N2CCC[C@@H](C(=O)NC3CCc4ccccc43)N2C1=O (some centres undefined)
[1]
  GI50: > 25 µM
  TGI: > 25 µM
[2]
  GI50: > 25 µM
  TGI: > 25 µM
[3]
  GI50: > 25 µM
  TGI: > 25 µM
[4]
  GI50: > 25 µM
  TGI: > 25 µM
[5]
  GI50: > 25 µM
  TGI: > 25 µM
[6]
  GI50: > 25 µM
  TGI: > 25 µM
[7]
  GI50: > 25 µM
  TGI: > 25 µM
[8]
  GI50: > 25 µM
  TGI: > 25 µM
[9]
  GI50: > 25 µM
  TGI: > 25 µM
[10]
  GI50: > 25 µM
  TGI: > 25 µM

## C[C@]12CC[C@H]3[C@@H](CC[C@]4(O)C[C@@H](O[C@@H]5O[C@H](CO)[C@@H](O[C@@H]6OC[C@@H](O)[C@H](O)[C@H]6O)[C@H](O)[C@H]5O)CC[C@]34C=O)[C@@]1(O)CC[C@@H]2C1=CC(=O)OC1
[1]
  GI50: 1.98 µM
  TGI: 8.23 µM
[2]
  GI50: 1.17 µM
  TGI: 3.08 µM
[3]
  GI50: 1.46 µM
  TGI: 5.09 µM
[4]
  GI50: 1.54 µM
  TGI: 5.01 µM
[5]
  GI50: 1.68 µM
  TGI: 5.67 µM
[6]
  GI50: 1.42 µM
  TGI: 5.19 µM
[7]
  GI50: 1.6 µM
  TGI: 5.12 µM
[8]
  GI50: 0.302 µM
  TGI: 1.82 µM
[9]
  GI50: 1.98 µM
  TGI: 7.24 µM
[10]
  GI50: 0.414 µM
  TGI: 2.49 µM

## CC(=O)Nc1ccc(C2=N/C(=C\c3ccc(Cl)cc3)C(=O)O2)cc1
[1]
  TGI: > 100 µM
[2]
  TGI: 86.7 µM
[3]
  TGI: 35.6 µM
[4]
  TGI: 73.9 µM
[5]
  TGI: > 100 µM
[6]
  TGI: 51.6 µM
[7]
  TGI: 37.1 µM
[8]
  TGI: 64.1 µM
[9]
  TGI: > 100 µM
[10]
  TGI: 61.5 µM

## CCCCOC(=O)c1c(C)[nH]c(/C=C2\N=C(c3ccc[nH]3)C=C2OC)c1C
[1]
  GI50: 0.11 µM
  TGI: 1.86 µM
[2]
  GI50: 0.151 µM
  TGI: 1.17 µM
[3]
  GI50: 0.0296 µM
  TGI: 0.102 µM
[4]
  GI50: 0.137 µM
  TGI: 0.337 µM
[5]
  GI50: 0.12 µM
  TGI: 1.76 µM
[6]
  GI50: 0.267 µM
  TGI: 3.09 µM
[7]
  GI50: 0.053 µM
  TGI: 1.29 µM
[8]
  GI50: 0.138 µM
  TGI: 9.85 µM
[9]
  GI50: 0.274 µM
  TGI: 1.67 µM
[10]
  GI50: 0.226 µM
  TGI: 2.54 µM

## C[C@]12CCc3nn(-c4ccccc4)nc3C1CC[C@@H]1C2CC[C@]2(C)C(=O)CCC12 (some centres undefined)
[1]
  TGI: > 100 µM
[2]
  TGI: > 100 µM
[3]
  TGI: > 100 µM
[4]
  TGI: > 100 µM
[5]
  TGI: > 100 µM
[6]
  TGI: > 100 µM
[7]
  TGI: > 100 µM
[8]
  TGI: > 100 µM
[9]
  TGI: > 100 µM
[10]
  TGI: > 100 µM

## CCC(C)C1NC(=O)C(NC(=O)C(CC(C)C)N(C)C(=O)[C@@H]2CC(O)CN2C(=O)[C@H](C)O)C(C)OC(=O)[C@H](Cc2ccc(OC)cc2)N(C)C(=O)[C@@H]2CCCN2C(=O)[C@H](CC(C)C)NC(=O)C(C)C(=O)[C@H](C(C)C)OC(=O)CC1O (some centres undefined)
[1]
  GI50: < 0.01 µM
  TGI: 0.735 µM and 0.173 µM
[2]
  GI50: 0.0793 µM
  TGI: 1.26 µM and 0.982 µM
[3]
  GI50: 0.0218 µM
  TGI: 1.06 µM and 0.193 µM
[4]
  GI50: 0.581 µM
  TGI: 5.65 µM
[5]
  GI50: < 0.01 µM
  TGI: 1.63 µM and 0.677 µM
[6]
  GI50: 0.0762 µM
  TGI: 1.7 µM and 2.28 µM
[7]
  GI50: 0.315 µM
  TGI: 12.7 µM
[8]
  GI50: 0.0142 µM
[9]
  GI50: 0.0163 µM
  TGI: 0.273 µM and 1.69 µM
[10]
  GI50: 0.0572 µM
  TGI: 0.806 µM and 3.2 µM

## CC[As](CC)SCC1OC(OC(C)=O)C(OC(C)=O)C(OC(C)=O)C1OC(C)=O (centres undefined)
[1]
  TGI: 34.7 µM
[2]
  TGI: 27.6 µM
[3]
  TGI: 33.6 µM
[4]
  TGI: 29.8 µM
[5]
  TGI: 25.3 µM
[6]
  TGI: 28.1 µM
[7]
  TGI: 26.4 µM
[8]
  TGI: 48.2 µM
[9]
  TGI: 10 µM
[10]
  TGI: 28.4 µM
